Key:
large (Lg) crabgrass = assay: Test A postemergence; type: in vivo, Digitaria sanguinalis
Procedure, shortened: (§1)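 Greenhouse pot test, loam/sand soil. Formulation: non-phytotoxic solvent mix plus surfactant. Pre: directed spray onto soil after sowing. Post: plants at 1–2 leaf, 2–10 cm. Rated visually vs untreated controls at ~10 d, 0 (no effect) to 100 (complete control).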

giant foxtail = assay: Test A postemergence; type: in vivo, Setaria faberii
Procedure, shortened: as §1

Italian ryegrass = assay: Test C postemergence; type: in vivo, Lolium multiflorum
Source text: (§2) Seeds of plant species selected from blackgrass (Alopecurus myosuroides), Italian ryegrass (Lolium multiflorum), wheat, winter (winter wheat, Triticum aestivum), galium (catchweed bedstraw, Galium aparine), corn (Zea mays), large (Lg) crabgrass (Digitaria sanguinalis), giant foxtail (Setaria faberii), johnsongrass (Sorghum halepense), lambsquarters (Chenopodium album), morningglory (Ipomoea coccinea), yellow nutsedge (Cyperus esculentus), pigweed (Amaranthus retroflexus), ragweed (common ragweed, Ambrosia elatior), soybean (Glycine max), barnyardgrass (Echinochloa crus-galli), oilseed rape (Brassica napus), waterhemp (common waterhemp, Amaranthus rudis), kochia (Kochia scoparia), wild oat (Avena fatua), surinam grass (Brachiaria decumbens), foxtail, green (green foxtail, Setaria viridis), goosegrass (Eleusine indica), bromegrass, downy (downy bromegrass, Bromus tectorum), nightshade (eastern black nightshade, Solanum ptycanthum), cocklebur (common cocklebur, Xanthium strumarium), cupgrass, woolly (woolly cupgrass, Eriochloa villosa), bermudagrass (Cynodon dactylon), sunflower, (common oilseed sunflower, Helianthus annuus), Russian thistle (Salsola kali), and velvetleaf (Abutilon theophrasti) were planted into a blend of loam soil and sand and treated preemergence with test chemicals formulated in a non-phytotoxic solvent mixture which included a surfactant.
(§3) At the same time, plants selected from these crop and weed species and also barley, winter (winter barley, Hordeum vulgare), windgrass (Apera spica-venti), chickweed (common chickweed, Stellaria media), deadnettle (henbit deadnettle, Lamium amplexicaule), and canarygrass (littleseed canarygrass, Phalaris minor) were planted in pots containing Redi-Earth® planting medium (Scotts Company, 14111 Scottslawn Road, Marysville, Ohio 43041) comprising spaghnum peat moss, vermiculite, wetting agent and starter nutrients and treated with postemergence applications of test chemicals formulated in the same manner. Plants ranged in height from 2 to 18 cm (1- to 4-leaf stage) for postemergence treatments. Treated plants and controls were maintained in a greenhouse for 13 to 15 days, after which time all species were compared to controls and visually evaluated. Plant response ratings, summarized in Table C, are based on a scale of 0 to 100 where 0 is no effect and 100 is complete control. A dash (-) response means no test result.

pigweed = assay: Test A preemergence; type: in vivo, Amaranthus retroflexus
Procedure, shortened: as §1

corn [1] = assay: Test A preemergence; type: in vivo, Zea mays
Procedure, shortened: as §1

Heteranthera limosa = assay: Test B flooded paddy test; type: in vivo; conditions: Flood, 250 g ai/ha, 0 to 100 scale where 0 is no effect and 100 is complete control
Procedure, shortened: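 Visual ratings on a 0 to 100 scale, where 100 means complete control, compared treated plants with controls after 13 to 15 days in a greenhouse. Treatment went into paddy water 3 cm deep over the soil, applied to plants at the 2-leaf stage.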

corn [2] = assay: Test C postemergence; type: in vivo, Zea mays
Source text: as §2, §3

wheat = assay: Test A postemergence; type: in vivo, Triticum aestivum
Procedure, shortened: as §1

[3] = 1000 g ai/ha, 0 to 100 scale, 0 no effect, 100 complete control
[4] = 8 g ai/ha, postemergence, 0 is no effect, 100 is complete control
[5] = 16 g ai/ha, postemergence, 0 is no effect, 100 is complete control
[6] = 31 g ai/ha, postemergence, visual rating, scale 0 to 100 (0 no effect, 100 complete control), 13 to 15 days
[7] = Postemergence, 62 g ai/ha, scale 0 to 100 (0 no effect, 100 complete control), 13 to 15 days
[8] = 1000 g ai/ha, 0 to 100 scale, 0 no effect, 100 complete control, approx. 10 days
[9] = 125 g ai/ha, 0 to 100 scale where 0 is no effect and 100 is complete control
[10] = 500 g ai/ha, 0 to 100 scale where 0 is no effect and 100 is complete control
[11] = 125 g ai/ha, postemergence, visual rating, scale 0 to 100 (0 no effect, 100 complete control)
[12] = Postemergence, 31 g ai/ha, scale 0 to 100 (0 no effect, 100 complete control), 13 to 15 days
[13] = Postemergence, 62 g ai/ha, scale 0 to 100 (0 no effect, 100 complete control)
[14] = 500 g ai/ha, 0 to 100 scale, 0 no effect, 100 complete control, approx. 10 days

SMILES	Plant response rating, Crabgrass, Large (large (Lg) crabgrass; [3])	Plant response rating, Foxtail, Giant (giant foxtail; [3])	Plant response rating (0 to 100), Ryegrass, Italian (Italian ryegrass; [5])	Ryegrass, Italian plant response rating (Italian ryegrass; [6])	Plant response rating, Ryegrass, Italian (Italian ryegrass; [7])	Pigweed plant response rating (pigweed; [8])	Corn plant response rating (corn [1]; [8])	Plant response rating, Ducksalad (Heteranthera limosa)	Plant response rating (0 to 100), Corn (corn [2]; [5])	Corn plant response rating (corn [2]; [6])	Plant response rating, Corn (corn [2]; [7])	Plant response rating, Wheat (wheat; [3])	Crabgrass, Large plant response rating (large (Lg) crabgrass; [9])	Plant response rating, Crabgrass, Large (large (Lg) crabgrass; [10])	Foxtail, Giant plant response rating (giant foxtail; [9])	Plant response rating, Foxtail, Giant (giant foxtail; [10])	Plant response rating, Ryegrass, Italian (Italian ryegrass; [11])	Pigweed plant response rating (0 to 100 scale) (pigweed; 125 g ai/ha)	Plant response rating, Corn (corn [2]; [11])	Plant response rating, Wheat (wheat; [10])	also measured
Clc1cnc(Oc2ccccc2-n2cc(I)nn2)nc1 [Compound 222]	100	90	0	0	0	100	60	50	5	5	0	40	–	–	–	–	–	–	–	–	Plant response rating (0 to 100), Ryegrass, Italian (Italian ryegrass; [4]): 0; Plant response rating (0 to 100), Corn (corn [2]; [4]): 0
FC(F)c1cnn(-c2c(Br)cccc2Oc2ncc(Cl)cn2)c1 [Compound 232]	–	–	0	0	5	–	–	95	5	10	10	–	60	90	70	90	10	100	15	50	Pigweed plant response rating (pigweed; [10]): 100; Corn plant response rating (0 to 100 scale) (corn [1]; 125 g ai/ha): 0; Corn plant response rating (corn [1]; [10]): 60; Wheat plant response rating (wheat; [9]): 20
Clc1cnc(Oc2cccc(Cl)c2-n2cc(Cl)cn2)nc1 [Compound 220]	–	–	0	0	5	–	–	100	5	10	10	–	100	100	80	90	10	100	10	60	Pigweed plant response rating (pigweed; [10]): 100; Corn plant response rating (0 to 100 scale) (corn [1]; 125 g ai/ha): 0; Corn plant response rating (corn [1]; [10]): 10; Wheat plant response rating (wheat; [9]): 10
Clc1cnn(-c2ccccc2Oc2ncc(Br)cn2)c1 [Compound 5, 5-bromo-2-[2-(4-chloro-1H-pyrazol-1-yl)phenoxy]pyrimidine]	–	–	–	–	–	–	–	–	–	–	–	–	–	–	–	–	–	–	–	–	pest or weed control at 125 g/ha (large (Lg) crabgrass; Digitaria sanguinalis, post-emergence, 240 h, 125 g ai/ha, 0 to 100 scale where 0 is no effect and 100 is complete control, read-out: Plant response rating, Crabgrass, Large): 30%; pest or weed control at 500 g/ha (large (Lg) crabgrass; Digitaria sanguinalis, post-emergence, 240 h, 500 g ai/ha, 0 to 100 scale, 0 no effect, 100 complete control, read-out: Plant response rating Crabgrass, Large): 80%; pest or weed control at 125 g/ha (giant foxtail; Setaria faberi, post-emergence, 240 h, 125 g ai/ha, 0 to 100 scale where 0 is no effect and 100 is complete control, read-out: Plant response rating, Foxtail, Giant): 40%; pest or weed control at 500 g/ha (giant foxtail; Setaria faberi, post-emergence, 240 h, 500 g ai/ha, 0 to 100 scale, 0 no effect, 100 complete control, read-out: Plant response rating Foxtail, Giant): 100%; pest or weed control at 125 g/ha (Italian ryegrass; Lolium multiflorum, post-emergence, 125 g ai/ha, postemergence, read-out: Plant response rating (0 to 100), Ryegrass, Italian): 10%; pest or weed control at 250 g/ha (Italian ryegrass; Lolium multiflorum, post-emergence, 250 g ai/ha, postemergence, read-out: Plant response rating (0 to 100), Ryegrass, Italian): 25%; pest or weed control at 31 g/ha (Italian ryegrass; Lolium multiflorum, post-emergence, Postemergence, 31 g ai/ha, scale 0 to 100 (0 no effect, 100 complete control), 13 to 15 days, read-out: Plant response rating, Ryegrass, Italian): 0%; pest or weed control at 62 g/ha (Italian ryegrass; Lolium multiflorum, post-emergence, Postemergence, 62 g ai/ha, scale 0 to 100 (0 no effect, 100 complete control), read-out: Plant response rating, Ryegrass, Italian): 5%; pest or weed control at 125 g/ha (pigweed; Amaranthus retroflexus, pre-emergence, 240 h, 125 g ai/ha, 0 to 100 scale where 0 is no effect and 100 is complete control, read-out: Pigweed plant response rating): 100%; pest or weed control at 500 g/ha (pigweed; Amaranthus retroflexus, pre-emergence, 240 h, 500 g ai/ha, 0 to 100 scale, 0 no effect, 100 complete control, approx. 10 days, read-out: Pigweed plant response rating): 100%; plant injury at 125 g/ha (corn [1]; Zea mays, pre-emergence, 240 h, 125 g ai/ha, 0 to 100 scale where 0 is no effect and 100 is complete control, read-out: Corn plant response rating): 0%; plant injury at 500 g/ha (corn [1]; Zea mays, pre-emergence, 240 h, 500 g ai/ha, 0 to 100 scale, 0 no effect, 100 complete control, approx. 10 days, read-out: Corn plant response rating): 0%; pest or weed control at 250 g/ha (Heteranthera limosa; Heteranthera limosa, read-out: Plant response rating, Ducksalad): 50%; plant injury at 125 g/ha (corn [2]; Zea mays, post-emergence, 125 g ai/ha, postemergence, read-out: Plant response rating (0 to 100), Corn): 60%; plant injury at 250 g/ha (corn [2]; Zea mays, post-emergence, 250 g ai/ha, postemergence, read-out: Plant response rating (0 to 100), Corn): 70%; Corn plant response rating (crop injury, 0 = no effect, 100 = complete kill) at 31 g/ha (corn [2]; Zea mays, post-emergence, Postemergence, 31 g ai/ha, scale 0 to 100 (0 no effect, 100 complete control), 13 to 15 days): 15%; Corn plant response rating (crop injury, 0 = no effect, 100 = complete kill) at 62 g/ha (corn [2]; Zea mays, post-emergence, Postemergence, 62 g ai/ha, scale 0 to 100 (0 no effect, 100 complete control)): 20%; plant injury at 125 g/ha (wheat; Triticum aestivum, post-emergence, 240 h, 125 g ai/ha, 0 to 100 scale where 0 is no effect and 100 is complete control, read-out: Plant response rating, Wheat): 0%; plant injury at 500 g/ha (wheat; Triticum aestivum, post-emergence, 240 h, 500 g ai/ha, 0 to 100 scale, 0 no effect, 100 complete control, read-out: Plant response rating Wheat): 40%
FC(F)Oc1cnn(-c2ccccc2Oc2ncc(Cl)cn2)c1 [Compound 98]	–	–	–	–	–	–	–	85	–	–	–	–	–	100	–	90	–	–	–	60	Plant response rating, Crabgrass, Large (large (Lg) crabgrass; [9]): 80; Plant response rating, Foxtail, Giant (giant foxtail; [9]): 80; Plant response rating (0 to 100), Ryegrass, Italian (Italian ryegrass; 125 g ai/ha, postemergence): 25; Plant response rating, Ryegrass, Italian (Italian ryegrass; [12]): 0; Plant response rating, Ryegrass, Italian (Italian ryegrass; [13]): 5; Plant response rating, Pigweed (pigweed; [9]): 100; Pigweed plant response rating (pigweed; [14]): 100; Plant response rating, Corn (corn [1]; [9]): 0; Corn plant response rating (corn [1]; [14]): 10; Corn plant response rating (corn [2]; 16 g ai/ha, postemergence, visual rating, scale 0 to 100 (0 no effect, 100 complete control), 13 to 15 days): 5; Plant response rating (0 to 100), Corn (corn [2]; 125 g ai/ha, postemergence): 20; Plant response rating, Corn (corn [2]; [12]): 10; Plant response rating, Corn (corn [2]; [13]): 5
Clc1cnc(Oc2ccccc2-n2cc(Br)nn2)nc1 [Compound 223]	100	90	0	0	0	100	80	90	5	5	5	70	–	–	–	–	5	–	5	–	–

— patent US9695155B2, “Herbicidal substituted pyrimidinyloxy benzene compounds” (E. I. DU PONT DE NEMOURS AND COMPANY, priority 2013, dated 2017)
